pIC50, pKd, pKi: −log10 of the molar value.
Experiments:
[1] = Partition coefficient (logP); format: physicochemical; conditions: octanol/water
Homo sapiens [2] = species on record: Homo sapiens; assay: Binding affinity to human plasma protein; format: cell-free
B2 bradykinin receptor [3] = target: T1, B2 bradykinin receptor (Homo sapiens, UniProt P30411); assay: Binding affinity to human Bradykinin receptor B2 over-expressed in transgenic rats was determined by ex vivo receptor occupancy assay
T1 sequence (P30411 whole entry): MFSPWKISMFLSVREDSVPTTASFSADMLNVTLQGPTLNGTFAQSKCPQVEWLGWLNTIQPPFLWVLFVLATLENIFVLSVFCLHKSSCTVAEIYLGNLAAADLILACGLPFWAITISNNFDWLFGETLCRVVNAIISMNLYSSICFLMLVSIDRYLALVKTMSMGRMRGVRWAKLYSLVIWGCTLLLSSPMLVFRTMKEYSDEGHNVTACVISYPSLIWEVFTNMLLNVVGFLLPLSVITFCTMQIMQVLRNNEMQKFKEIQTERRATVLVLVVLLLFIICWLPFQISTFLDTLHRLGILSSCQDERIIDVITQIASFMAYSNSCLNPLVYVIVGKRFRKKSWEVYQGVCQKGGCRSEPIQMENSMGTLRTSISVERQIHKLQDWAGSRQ

B1 bradykinin receptor [4] = target: T2, B1 bradykinin receptor (Homo sapiens, UniProt P46663); assay: Binding affinity to human Bradykinin receptor B1 over-expressed in transgenic rats was determined by ex vivo receptor occupancy assay
T2 sequence (P46663 whole entry): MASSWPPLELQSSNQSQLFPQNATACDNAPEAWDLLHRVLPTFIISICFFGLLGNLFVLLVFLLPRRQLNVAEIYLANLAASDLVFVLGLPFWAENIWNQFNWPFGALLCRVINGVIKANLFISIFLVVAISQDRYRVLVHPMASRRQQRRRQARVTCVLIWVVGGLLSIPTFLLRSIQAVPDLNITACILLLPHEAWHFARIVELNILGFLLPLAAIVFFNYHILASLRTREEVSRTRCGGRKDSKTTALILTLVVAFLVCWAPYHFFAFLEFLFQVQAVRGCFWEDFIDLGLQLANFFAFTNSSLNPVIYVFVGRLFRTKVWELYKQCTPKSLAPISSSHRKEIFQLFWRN

Homo sapiens [5] = species on record: Homo sapiens; assay: Binding affinity of the [35S]- radiolabeled compound to human plasma protein; format: cell-free
B1 bradykinin receptor [6] = target: T2, B1 bradykinin receptor; assay: Antagonist activity against human Bradykinin receptor B1 was determined in a fluorescence imaging plate reader assay; format: functional
B1 bradykinin receptor [7] = target: T2, B1 bradykinin receptor; assay: Binding affinity of the [35S]- radiolabeled compound to human Bradykinin receptor B1 over-expressed in transgenic rats was determined by ex vivo receptor occupancy assay
[8] = Half-life of the [35S]- radiolabeled compound; format: ADME
B1 bradykinin receptor [9] = target: T2, B1 bradykinin receptor; assay: Equilibrium dissociation constant of the [35S]- radiolabeled compound against human Bradykinin receptor B1 expressed in CHO membranes was determined; format: cell membranes
B1 bradykinin receptor [10] = target: T3, B1 bradykinin receptor (Rattus norvegicus, UniProt P97583); assay: Binding affinity of the [35S]- radiolabeled compound to rat Bradykinin receptor B1
T3 sequence (P97583 whole entry): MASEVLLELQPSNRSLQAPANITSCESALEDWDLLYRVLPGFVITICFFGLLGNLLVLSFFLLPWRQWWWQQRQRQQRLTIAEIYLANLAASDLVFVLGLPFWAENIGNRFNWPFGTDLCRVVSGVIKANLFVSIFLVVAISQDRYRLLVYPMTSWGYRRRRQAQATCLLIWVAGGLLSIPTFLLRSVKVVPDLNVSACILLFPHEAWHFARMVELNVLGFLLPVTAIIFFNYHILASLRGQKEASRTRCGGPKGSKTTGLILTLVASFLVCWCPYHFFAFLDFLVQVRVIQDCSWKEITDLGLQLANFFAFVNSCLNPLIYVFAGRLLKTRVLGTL

B1 bradykinin receptor [11] = target: T4, B1 bradykinin receptor (Oryctolagus cuniculus, UniProt P48748); assay: Binding affinity of the [35S]- radiolabeled compound to rabbit Bradykinin receptor B1
T4 sequence (P48748 whole entry): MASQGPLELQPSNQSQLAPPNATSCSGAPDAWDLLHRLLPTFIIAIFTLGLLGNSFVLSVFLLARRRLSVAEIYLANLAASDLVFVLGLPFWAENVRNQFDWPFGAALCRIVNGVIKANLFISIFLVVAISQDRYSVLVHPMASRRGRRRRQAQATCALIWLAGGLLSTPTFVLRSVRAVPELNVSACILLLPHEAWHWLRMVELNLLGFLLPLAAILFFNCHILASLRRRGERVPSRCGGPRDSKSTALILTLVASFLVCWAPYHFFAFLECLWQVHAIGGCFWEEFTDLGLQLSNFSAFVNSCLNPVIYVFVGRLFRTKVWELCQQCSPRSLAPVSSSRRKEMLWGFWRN

[12] = target: T5, B1 bradykinin receptor (Homo sapiens) (UniProt P46663); assay: Maximum specific binding of the [35S]- radiolabeled compound to human Bradykinin receptor B1 expressed in CHO membranes was determined; format: cell membranes
T5 sequence (whole entry): T2 sequence (P46663 whole entry)

B1 bradykinin receptor [13] = target: T6, B1 bradykinin receptor (Canis lupus familiaris, UniProt Q9BDQ5); assay: Binding affinity of the [35S]- radiolabeled compound to dog Bradykinin receptor B1
T6 sequence (Q9BDQ5 whole entry): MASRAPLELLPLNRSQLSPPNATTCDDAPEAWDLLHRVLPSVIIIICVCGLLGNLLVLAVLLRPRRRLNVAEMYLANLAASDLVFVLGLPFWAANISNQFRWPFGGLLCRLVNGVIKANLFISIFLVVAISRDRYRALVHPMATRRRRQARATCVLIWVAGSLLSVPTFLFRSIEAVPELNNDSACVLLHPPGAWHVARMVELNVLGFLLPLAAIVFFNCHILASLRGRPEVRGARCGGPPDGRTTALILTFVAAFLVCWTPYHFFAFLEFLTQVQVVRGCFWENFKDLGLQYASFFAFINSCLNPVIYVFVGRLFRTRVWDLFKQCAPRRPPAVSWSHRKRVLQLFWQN

B2 bradykinin receptor [14] = target: T1, B2 bradykinin receptor; assay: Binding affinity of the [35S]- radiolabeled compound to human Bradykinin receptor B2 over-expressed in transgenic rats was determined by ex vivo receptor occupancy assay
B1 bradykinin receptor [15] = target: T2, B1 bradykinin receptor; assay: Binding affinity (radioligand) to human Bradykinin receptor B1 over-expressed in transgenic rats was determined by ex vivo receptor occupancy assay; value ranges from 0.1-0.2 nM

Structure (SMILES) | logP [1] | PPB (Homo sapiens [2]) | pKi (B2 bradykinin receptor [3]) | pKi (B1 bradykinin receptor [4]) | also measured
O=C(C[C@@H]1C(=O)Nc2ccccc2N1S(=O)(=O)c1ccc(Cl)c(Cl)c1)NCCc1ccc(-n2cnnc2)cc1 | 2.35 | 82.5% | < 5.00 | 8.43 | –
O=C(C[C@@H]1C(=O)Nc2ccc(Cl)cc2N1S(=O)(=O)c1ccc2ccccc2c1)NCCc1ccc(C2=NCCN2)cc1 | 1 | 93.6% | < 5.00 | 11.00 | –
O=C(C[C@@H]1C(=O)Nc2ccc(Cl)cc2N1S(=O)(=O)c1ccc2ccccc2c1)NCCc1ccc(-c2ncc[nH]2)cc1 | 3.41 | – | < 5.00 | 10.15 | –
O=C(C[C@@H]1C(=O)Nc2ccccc2N1S(=O)(=O)c1ccc(Cl)c(Cl)c1)NCCc1ccc(-n2ccnc2)cc1 | 3.35 | – | < 5.00 | 8.96 | –
[3H][C@@]1(C(=O)NCC(=O)N[C@@H](Cc2ccccc2)C(=O)N[C@@H](CO)C(=O)N2CCC[C@H]2C(=O)N[C@@H](CC(C)C)C(=O)O)CCCN1C(=O)[C@]1([3H])CCCN1C(=O)[C@H](CCCN=C(N)N)NC(=O)[C@@H](N)CCCCN | – | – | – | – | pKi (B1 bradykinin receptor [15]): > 9.70

Second part, led by results:

logP [1] | PPB (Homo sapiens [2]) | pKi (B2 bradykinin receptor [3]) | pKi (B1 bradykinin receptor [4]) | Structure (SMILES) | also measured
3.32 | 98.5% | < 5.00 | 10.15 | O=C(C[C@@H]1C(=O)Nc2ccccc2N1S(=O)(=O)c1ccc2ccccc2c1)NCCc1ccc(-c2ncc[nH]2)cc1 | –
0.25 | – | – | – | O=C(C[C@@H]1C(=O)Nc2ccccc2N1S(=O)(=O)c1ccc2ccccc2c1)NCCc1ccc(C2=NCCN2)cc1 | PPB (Homo sapiens [5]): 79.4%; pIC50 (B1 bradykinin receptor [6]): 10.40; pKi (B1 bradykinin receptor [7]): 10.70; half-life [8]: ~3.33 h; pKd (B1 bradykinin receptor [9]): 10.82; pKi (B1 bradykinin receptor [10]): 7.47; pKi (B1 bradykinin receptor [11]): 10.30; Bmax (fM mg-1 protein) [12]: 480; pKi (B1 bradykinin receptor [13]): 9.30; pKi (B2 bradykinin receptor [14]): < 5.00
0.48 | 36% | < 5.00 | 10.52 | O=C(C[C@@H]1C(=O)Nc2ccccc2N1S(=O)(=O)c1ccc(Cl)c(Cl)c1)NCCc1ccc(C2=NCCN2)cc1 | –
0.53 | 91.7% | < 5.00 | 10.70 | CN1CCN=C1c1ccc(CCNC(=O)C[C@@H]2C(=O)Nc3ccc(Cl)cc3N2S(=O)(=O)c2ccc3ccccc3c2)cc1 | –

— ChEMBL document CHEMBL1138721, “Development of an efficient and selective radioligand for bradykinin B1 receptor occupancy studies” (Bioorg Med Chem Lett, 2004)
